According to US9808500B2, “Antithrombotic nanoparticle” (Washington University, priority 2009, dated 2017):
Entries after “also recorded” stand apart in the source; their conditions may differ.

Assays:
[1] = target: T1, thrombin (Homo sapiens, UniProt P00734); conditions: thrombin inhibitor, quoted; cited from earlier work
[2] = tested on: C57BL/6 mice; test: Photochemical (rose bengal) injury, thrombotic occlusion of the carotid artery; format: in vivo, mouse; conditions: for effect on occlusion time / thrombus formation (in words): photochemical injury, C57BL/6 mice; for time to occlusion of the carotid artery: i.v. bolus 10 min before rose bengal, heparin 0.125 mg/kg, PPACK 12.5 mg/kg, nanoparticles 1 mL/kg
Source text: As described in previous work, 10-12 week old male C57BL/6 mice (weight 25-30 g) were subjected to photochemical injury of the carotid. After anesthetization with sodium pentobarbital, the mice were secured under a dissecting microscope for isolation of the right common carotid artery via midline cervical incision. An ultrasonic flow probe (model 0.5 VB Transonic Systems, Ithaca, N.Y.) was applied to the artery to measure flow for the duration of each experiment. A 1.5 mW 540 nm HeNe laser (Melles Griot, Carlsbad, Calif.) was focused on the artery at a distance of 6 cm. […] In additional control experiments (n=4), no treatment preceded injection of the rose bengal dye. Occlusion of the carotid artery was noted and experiments were terminated upon the stable (>5 minutes) maintenance of zero flow.

[3] = target: T1, thrombin; test: Thrombin inhibition and inhibition kinetics with chromogenic substrate Chromozym TH; format: biochemical
Experimental: Tosyl-Gly-Pro-Arg-4 nitranilide acetate (Chromozym TH, Roche Applied Science) was employed to assay PPACK inhibition of thrombin and plasmin in accordance with previously described methods [31]. 100 μL of 12 nM thrombin was incubated for one minute at room temperature with selected amounts of PPACK or PPACK-nanoparticles or with an excess of bare nanoparticles. 500 μL (100 μM) of the thrombin substrate Tosyl-Gly-Pro-Arg-4 nitranilide acetate were added to terminate the PPACK-thrombin interaction. In accordance with previous work, thrombin activity against the substrate was measured via absorbance at 405 nm. The rate of change in absorbance at 405 nm was taken as representative of the amount of uninhibited thrombin available to cleave Chromozym TH.
In additional experiments, Chromozym TH was used to determine the kinetics of the PPACK-thrombin interaction. […] Thrombin activity was measured as above. Kinetics of inhibition were characterized in accordance with the work of Kettner and Shaw [26]. The assay yielded the apparent pseudo-first-order rate constant for thrombin inactivation (kapp). Modeling inhibition according to equation (1), an estimate of the second order constants (k2/Ki) for the PPACK-thrombin interaction and the PPACK nanoparticle-thrombin interaction were obtained via equation (2). To best obtain a pseudo-first-order reaction, thrombin dilution was maximized within the limits set by the sensitivity of the Chromozym TH assay.

[4] = in vivo; cited from earlier work
[5] = tested on: mice; conditions: cited from earlier work
[6] = target: T1, thrombin; conditions: literature value; cited from earlier work
[7] = tested on: C57BL/6 mice; conditions: heparin 0.125 mg/kg, rose bengal model; cited from earlier work
[8] = Stability of the nanoparticle formulation (HPLC of unattached PPACK after storage); format: physicochemical; conditions: PPACK particles: after dialysis and one week storage at four degrees
Experimental: To functionalize particles containing 1,2-distearoyl-sn-glycero-3-phosphoethanolamine-N-[carboxy(polyethylene glycol)-2000] with PPACK, amine-carboxyl coupling was employed to conjugate the PPACK N-terminus to the bare carboxyl groups on the synthesized particles. After one hour mixing of 1 mL emulsion with 12.5 mg PPACK, EDCI 1-[3-(Dimethylamino)propyl]-3-ethylcarbodiimide methiodide (2 mg) was added for overnight coupling. Excess PPACK and EDCI were removed by dialysis (MWCO 3000-5000). Particle size was assessed before and after PPACK conjugation as described above. Extent of PPACK coupling was determined by reverse-phase HPLC quantification of uncoupled PPACK after centrifugation of nanoparticles with Cleanascite lipid adsorption reagent (Agilent Technologies). […] PPACK was detected via phenylalanine absorbance (258 nm). Zeta potential measurements, taking into consideration hydrodynamic diameter measurements, were used for further verification of PPACK coupling (Brookhaven Instruments).

CN[C@H](Cc1ccccc1)C(=O)N1CCC[C@H]1C(=O)N[C@H](C=O)CCCN=C(N)N [Efegatran]
Ki [1]: 1.2 nM

Bivalirudin: short synthetic peptide, specific and reversible direct thrombin inhibitor
effect on occlusion time / thrombus formation (in words) [2]: did not significantly extend occlusion time
effect on thrombin activity against Chromozym TH (in words) [3]: less active, but more specific than PPACK

NC(N)=NCCC[C@H](NC(=O)[C@@H]1CCCN1C(=O)[C@H](N)Cc1ccccc1)C(=O)CCl [PPACK, D-phenylalyl-L-prolyl-L-arginyl-chloromethyl ketone]
distribution half-life [4]: 7 min
elimination (clearance) half-life [4]: 2.9 min
time to occlusion of the carotid artery [2]: 71 ± 19 min
effect on occlusion time / thrombus formation (in words) [2]: allowed a steady approach to complete occlusion; also recorded: did not delay occlusion time
LD50 [5]: greater than 50 mg/kg
long-term toxicity [5]: no long-term toxicity
effect on thrombin activity against Chromozym TH (in words) [3]: no significant thrombin activity apparent beyond a ten-fold excess
pseudo-first-order rate constant kapp ([3]; 0.92 nM thrombin, 5 nM PPACK or 0.3 pM PPACK nanoparticles): 1.824 min⁻¹
second order constant (k2/Ki), per PPACK ([3]; free PPACK or PPACK on the particles, 5 nM PPACK): 3.65e+08 M⁻¹ min⁻¹
decay constant of thrombin activity with inhibitor concentration ([3]; one-minute incubation, per PPACK concentration): 0.026 nM⁻¹
second order constant found by Kettner and Shaw [6]: 1.2e+09 M⁻¹ min⁻¹

Heparin
time to occlusion of the carotid artery [2]: 102 ± 13 min
effect on occlusion time / thrombus formation (in words) [2]: formation of a stable thrombus was noticeably delayed
occlusion time in previous trials [7]: 97 ± 18 min

Bivalirudin nanoparticles: Bivalirudin conjugated at the N-terminus to Carboxy-PEG functionalized perfluorocarbon nanoparticles
effect on occlusion time / thrombus formation (in words) [2]: Bivalirudin nanoparticles did
stability of the nanoparticle formulation [8]: analogous coupling and stability characteristics
